Experimental data published in US5352667A, “Non-peptidic surrogates of the Arg-Gly-Asp sequence and pharmaceutical compositions comprising them” (priority 1991, dated 1994).
Entries after “also recorded” stand apart in the source; their conditions may differ.

Experiments:
trypsin = experiment: Treatment with trypsin (HPLC monitoring of hydrolysis); format: in vitro ADME; conditions: 0.25% trypsin, 37° C., HPLC at 220 nm, aliquots 5, 30, 60 min
Method: Compound SF-6,5 and the GRGDS peptide (50 μg in 100 μl PBS) were incubated at 37° C. and exposed to 0.25% trypsin (Gibco; 50μl in modified Puck's buffer). Aliquots were taken after 5, 30 and 60 min and monitored by HPLC at 220 nm.

[1] = test system: B16-melanoma cells adhesion to FN; experiment: Inhibition of B16-melanoma cell adhesion to FN; format: cell-based, murine
[2] = test system: CD4^+ T cell adhesion to FN; experiment: Inhibition of activated CD4+ T cell adhesion to FN; format: cell-based, human
Method: To examine the adhesive properties of the T cells, 1 μg/50 μl/well of either fibronectin (FN) (Sigma), the 120 kD cell attachment fragment of FN (Telios Pharm. Inc. San Diego, CA), or laminin (LN) (Sigma), were added to 96-flat bottom microtiter-wells for 12 h. Unbound proteins were then washed away and remaining binding sites were blocked with 0.1% bovine serum albumin (BSA) added to the wells for 2 h and washed. CD4+T cells were purified from peripheral blood mononuclear leukocytes obtained from healthy human donors. The mononuclear cells were isolated using a Ficoll gradient, washed and incubated in RPMI supplemented with 10% fetal calf serum (FCS) and antibiotics in petri dishes at 37° C. humidified CO2 incubator. After 2 h, the non-adherent cells were isolated and applied on nylon-wool columns (1.5 h). CD4^+ T cells were then negatively selected by exposure of the cells to a cocktail of anti-CD8, CD19, and CD14 monoclonal antibodies (mAb) conjugated to magnetic-beads (Advanced Magnetics, MA). Unbound cells were recovered and their phenotype was examined. Purity of the CD4^+ T cells was always greater than 92% as determined by FACScan.
The purified CD4^+ T cells were radioactively labeled with ^51 [Cr](New England Nuclear) in RPMI +20% FCS for 2 h and washed. The cells were counted and seeded (0.2×10^5 cells) on the precoated microtiter wells in the presence or the absence of the various inhibitors. Coating was made either with FN, the 120 kD cell-attachment fragment of FN or with control adhesive protein laminin (LN). The inhibitors were various surrogates according to the invention, other test molecules or mAb. After 30 min incubation (in […] CO2 -- humidified incubator) the T cells were activated by 10 ng/ml phorbol myristate acetate (PMA) and the percent of T cells attached to the protein substrates was measured. Unbound cells were washed away after 20-30 min, the bound cells were lysed and their radioactivity was measured using radioactive counter. The amount of the radioactivity of the cell lysates represent the matrix-adherent cells and percent binding was calculated in comparison to the total radioactivity added to the wells. Activated T cell adhesion to control wells or to wells coated with BSA was always 2-5%; the level of adhesion of the non-activated T cells was always below 5%. Where indicated, 1/200 diluted mAb anti-CD29 (anti-β1 mAb Serotec, GB), or 1/400 diluted anti-VLA5 (the β1α5 FN-integrin receptor) mAb (Telios Pharm. Inc. San Diego), or 0.2 mM of RGD, GRGDSPK or GRGESP peptides (Sigma) were used. […] The results shown in Tables 1A, 1B and 1C represent data obtained from several experiments that produced essentially similar results.
In a second series of experiments, FN was used in the adhesion assay carried out with the RGD surrogates NS-8, NS-11 and NS-15 in comparison to RGDS peptide.
In a third series of experiments, FN was used in the adhesion assay with the surrogates SF-6,5 and NS-11 and compared to the peptide GRGDSP.

N=C(N)NCCCCCC(=O)NCCCCC(=O)O [SF-6,5, 6-aza-7-oxo-12-quanidino-dodecanoic acid]
Stability to trypsin (trypsin): intact after 60 min; also recorded: completely resistant to trypsin-induced hydrolysis
% Adhesion of activated tumor cells to FN: (% inhibition) ([1]; Conc. 25 μg. ml): 10%
% Adhesion of activated tumor cells to FN: (% inhibition) ([1]; Conc. 50 μg. ml): 20%
% Adhesion of activated tumor cells to FN: (% inhibition) ([1]; Conc. 100 μg. ml): 30%
% Adhesion of activated tumor cells to FN: (% inhibition) ([1]; Conc. 200 μg. ml): 45%
% Adhesion of activated CD4^+ T cell to FN: (% inhibition) ([2]; Conc. 25 μg. ml): 10%
% Adhesion of activated CD4^+ T cell to FN: (% inhibition) ([2]; Conc. 50 μg. ml): 25%
% Adhesion of activated CD4^+ T cell to FN: (% inhibition) ([2]; Conc. 100 μg. ml): 38%
% Adhesion of activated CD4^+ T cell to FN: (% inhibition) ([2]; Conc. 200 μg. ml): 55%
